In US6124266A, “Sulpholipid composition and methods for treating skin disorders” (Scotia Lipid Teknik AB, priority 1996, dated 2000):
pIC50: −log10 of the molar value. Like-named read-outs stand apart in the source and are kept apart here. Values belong to the molecule of their own block, whether it stands above or below them.

Tests used:
[1] = tested on: leukotriene B4 synthesis in human leucocytes; details: cited from earlier work
[2] = tested on: PAF induced elastase release in human neutrophils; experiment: PAF induced exocytosis (elastase assay); assay type: cell-based; details: for inhibitory activity in the PAF induced exocytosis model: in concentrations around the IC50 of SQDG; for pIC50: 10 min, human leucocytes, 37° C., mean of 2-4 experiments in duplicate, read-out: IC50, inhibition of PAF induced elastase release
Procedure: In this test, which is also called the elastase assay, the effect of the extracts on inhibiting the exocytosis induced by PAF was examined. This model was used to guide the fractionation of the extracts or isolated compounds.
Cell preparation: Peripheral blood anti-coagulated with heparin was obtained from healthy volunteers at the University Hospital (in Uppsala, Sweden). After sedimentation with 10% Dextran T-500 (Pharmacia Fine Chemicals) for 30 min at 20° C. the supernatant was removed and centrifuged at 200×g for 30 min. The sediments were treated with one volume of ice-cold water for 21 s followed by the addition of 9 volumes of Mg^2+ and Ca^2+ free PBS in order to lyse the remaining erythrocytes. After centrifugation (200×g for 10 min at 4° C.) the leucocytes were suspended in PBS (containing Mg^2+ and Ca^2+ and Cytochalasin B, Serva, 5 μg/ml) at a concentration of 10-30×10^6 cells/ml.
The assay was performed as described by Tuominen et al., Planta Medica 58, 306-310 (1992). In short leucocytes were incubated at 37° C. in PBS containing 2.5% BSA together with SAAVNA (N-succinyl-L-alanyl-L-alanyl-L-valine-p-nitroanilide, Bachem), the inhibitor in different concentrations or the vehicle (max. 0.1% DMSO) and PAF (Bachem) for 10 min. Blank tubes without PAF were run in parallel. The reaction was stopped by the addition of 2% citric acid and after the centrifugation, the samples were measured in a UV spectrophotometer at 405 nm. The absorbance of the corresponding blank tube was subtracted from the sample and the inhibition of PAF induced elastase release was calculated as the […] in absorbance as compared to the vehicle. The samples were analyzed as 4-5 concentrations ranging from 10^-3 M to 10^-7 M. They were dissolved in 10% DMSO (the isolated compound) or cyclodextrin (BN 52021, used as a reference) and then diluted with the buffer. The final concentration of DMSO or cyclodextrin never exceeded 0.1%.
(§1) The PAF induced exocytosis model described above is used for screening for PAF receptor antagonists since it is a rapid, reproducable and reliable so called functional assay for PAF. However, a number of other actions, like elastase inhibition or membrane stabilisation, would also result in an inhibitory effect in the model which consequently is not exclusive for PAF receptor antagonism. To elucidate if SQDG acts through PAF receptor antagonism in the neutrophil, a receptor binding model using [3H]PAF as the radioligand was used.

tumour promotion = details: Chem. Pharm. Bull. 41 (9), 1664-1666, 1993; cited from earlier work
PAF receptor [3] = target: T1, PAF receptor (Homo sapiens, UniProt P25105); experiment: [3H]PAF receptor binding assay; details: human polymorphonuclear leukocytes, 120 min, 20° C., pH 7.0, 0.35-0.40 nM [3H]PAF; mean of 2-4 experiments in triplicate; read-out: IC50, displacement of [3H]PAF binding
T1 construct: endogenous in cells; host or cells: human polymorphonuclear leukocytes (intact cells from concentrated suspensions of human leukocytes)
Source text: as §1
Cell preparation: For the receptor binding experiments the cells were prepared in the same way as described above except that concentrated suspensions of human leukocytes in a CDP-adenine solution were used and in the final step the cells were suspended in the incubation buffer and the cell count was adjusted to 3.1×10^6 cells/ml.
[^3 H]PAF (C18; 1-O-[^3 H]octadecyl-2-acetyl-sn-3-phosphocholine; Amersham, England) receptor binding was studied in human polymorphonuclear leukocytes (2.5×10^6 cells/ml) using a method recently reevaluated by us (Vasange et al., in press, 1996). Incubations were performed for 120 min at 20° C. in a total volume of 1.0 ml containing […] 25 mM Tris HCl, 130 mM NaCl, 5.5 mM KCl, 1.4 mM CaCl2, 0.7 mM MgCl2, 10 mM glucose, 0.5% BSA and 0.35-0.40 nM [^3 H]PAF. Final pH was 7.0 at the incubation temperature used. Non-specific binding was determined with 1 μM C16-PAF (Bachem, Switzerland). The incubation contents were rapidly filtered by vacuum over Whatman GF/C glass-fibre filters using a 12 well Skatron Cell Harverster (Skatron A/S, Norway) and washed with 3×2 ml incubation buffer containing 0.1% BSA. The filtration took less than 15 s. Filters were also pre-soaked with incubation buffer containing 0.1% BSA. Following filtration, the filters were dried in an oven at 70° C. for 30 min and equilibrated for two hours in the scintillation vials before counting in a Packard scintillator at an efficiency of 55%. […]

PAF receptor [4] = details: cited from earlier work
[5] = tested on: ethyl phenyl propiolate (EPP) induced rat ear oedema; experiment: Rat ear oedema (EPP induced); assay type: in vivo; details: mepyramine 1 μg/ear (positive control), 2 hours, 6 ears, p<0.01
Procedure: The rat ear oedema test is aimed to be used for detection of drugs with topical anti-inflammatory activity. It is based on the work by Tonelli et al., Endocrinology 77, 625-634, 1965, but instead of using the carcinogenic croton oil as induced, ethyl phenyl propiolate (EPP) is applied topically on the rat ears. The oedema develops rapidly (about 30 minutes) and starts to decline after two hours. Several measurements can be made by using a special measuring device and the values obtained with application of both EPP and the drug to be investigated are compared to values obtained with EPP alone.
The mechanism of the EPP induced oedema is not completely understood but it is known that compounds with broad anti-inflammatory action, like steroidal anti-inflammatory drugs, are active in this assay. The oedema can also be induced by other agents, such as arachidonic acid, and in that specific case the oedema is believed to develop through the action of the […], inflammatory mediators, leukotrienes. They can also contribute to the EPP oedema.
The Calaguala methanolic extract was tested in this model on several occasions. […]
The thickness of ears is measured after 2 hours. […] The significance of the values obtained was determined by using Students t-test (one tailed analysis). […]
The thickness of the ears was measured after 2 hours. […]

[6] = tested on: oedema induced by carrageenan potentiated by PAF; details: rat, in vivo; cited from earlier work
[7] = tested on: carrageenan induced rat paw oedema; experiment: Rat paw oedema induced by carrageenan; assay type: in vivo, rat (Spraque Dawley); details: Na-salicylate 200 mg/kg (positive control), p < 0.0005
Procedure: The most commonly used inducer is carrageenan which is injected to the hind paw of male Spraque Dawley rats.
Several tests were performed with the methanolic Calaguala extract which was applied orally in doses 500-2000 mg/kg. As positive control the cyclo-oxygenase inhibitor Na-salicylate (200 mg/kg) was used.
The significancies were calculated using Students t-test (one tailed).

T1 sequence (P25105 whole entry): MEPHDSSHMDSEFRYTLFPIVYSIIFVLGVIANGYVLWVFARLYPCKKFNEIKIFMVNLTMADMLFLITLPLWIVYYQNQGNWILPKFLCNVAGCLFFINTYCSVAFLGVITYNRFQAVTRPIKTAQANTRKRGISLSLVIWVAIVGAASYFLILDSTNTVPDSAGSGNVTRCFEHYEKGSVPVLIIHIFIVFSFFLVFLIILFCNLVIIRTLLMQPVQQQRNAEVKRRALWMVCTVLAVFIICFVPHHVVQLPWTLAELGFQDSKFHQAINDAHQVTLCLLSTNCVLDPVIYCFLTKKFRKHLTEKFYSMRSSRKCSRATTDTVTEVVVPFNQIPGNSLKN

Molecule: CCCCC/C=C\C/C=C\CCCCCCCC(=O)O [linoleic acid]
- inhibition of leukotriene B4 synthesis [1]: inhibitory activity

Molecule: monogalactosyldiacylglycerol [MGDG]
- inhibitory activity in the PAF induced exocytosis model [2]: no inhibitory activity
- inhibition of tumour promotion compared with SQDG (tumour promotion): inhibit tumour promotion more intensely than SQDG

Molecule: COc1ccc(NC(=S)N2CCc3c(sc4c3C(c3ccccc3Cl)=NCc3nnc(C)n3-4)C2)cc1 [BN 50730]
- pIC50 (PAF receptor [3]): 7.40
- PAF antagonistic activity in vitro (compared with BN 52021) (PAF receptor [4]; Guinot 1994): several ten-folds more potent

Molecule: digalactosyldiacylglycerol [DGDG]
- inhibitory activity in the PAF induced exocytosis model [2]: no inhibitory activity
- inhibition of tumour promotion compared with SQDG (tumour promotion): inhibit tumour promotion more intensely than SQDG

- pIC50 ([2]; Neutrophil): 5.00
- pIC50 (PAF receptor [3]): 5.70
Molecule: CCCCCCCCCCCCCCCC(=O)OC[C@H](CO[C@H]1O[C@H](CS(=O)(=O)O)[C@@H](O)[C@H](O)[C@H]1O)OC(=O)CCCCCCCCCCCCCCC [SQDG of the formula III, 1,2-O,O-dipalmitoyl-[6'-sulpho-α-D-quinovopyranosyl(1'→3)]-sn-glycerol]

Molecule: CCCCC/C=C\C/C=C\C/C=C\C/C=C\CCCC(=O)O [arachidonic acid]
- inhibition of leukotriene B4 synthesis [1]: inhibitory activity

Molecule: COc1ccc(CN(CCN(C)C)c2ccccn2)cc1 [Mepyramin]
- Mean decrease in oedema (ear thickness, Table 2) [5]: 44%

- pIC50 [2]: 4.10
- pIC50 (PAF receptor [3]): 4.60
Molecule: CC1C(=O)OC2C(O)C34C5CC(C(C)(C)C)C36C(OC(=O)C6O)OC4(C(=O)O5)C12O (stereo not drawn) [BN 52021]
- effect on PAF enhancement of carrageenan induced oedema [6]: capable of abolishing this enhancement
- anti-inflammatory properties in several in vivo and in vitro models (PAF receptor [4]): anti-inflammatory properties

Molecule: CCCCCCCC/C=C\CCCCCCCC(=O)O [oleic acid]
- inhibition of leukotriene B4 synthesis [1]: comparable inhibitory patterns

Molecule: O=C(O)c1ccccc1O [Na-salicylate]
- Mean decrease in oedema (Table 4) [7]: 43%

Molecule: CC/C=C\C/C=C\C/C=C\CCCCCCCC(=O)O [linolenic acid]
- inhibition of leukotriene B4 synthesis [1]: inhibitory activity
